# Measured values reported in US8703804B2, “Ryanodine receptor inhibitors and methods relating thereto” (UTI Limited Partnership, priority 2006, dated 2014).
# Entries after “also recorded” stand apart in the source; their conditions may differ. Where two headings read alike, the source gives them in different places.
# How the values were obtained:
# [1] = tested on: SOICR in rat ventricular myocytes; experiment: SOICR in rat ventricular myocytes (single cell Ca2+ imaging, fluo-4); assay type: cell-based; conditions: for IC50: Rattus norvegicus, Ventricular myocyte
# Protocol: Rat ventricular myocytes were loaded with a fluorescent Ca^2+ indicator, fluo 4-AM, and incubated at a high concentration of external Ca^2+ (10 mM) to induced SR Ca^2+ overload and SOICR, which manifests as Ca^2+ oscillations.
# In the experiments shown in FIG. 3, rat ventricular myocytes were loaded with a fluorescent Ca^2+ indicator, fluo-4, and incubated at a high concentration of extracellular Ca^2+ (10 mM) to induce SR Ca^2+ overload and SOICR, which manifests as Ca^2+ waves/oscillations. These Ca^2+ oscillations were monitored by a single cell Ca^2+ imaging technique.
# (§1) Further verification of whether these identified compounds also work in cardiac cells, the effect of these compounds on SOICR in rat ventricular myocytes may also be determined. Rat ventricular myocytes may be isolated according to the standard procedure using enzymatic digestion. Freshly isolated cells are loaded with a fluorescent Ca^2+ dye, fluo 4-AM, and bathed at high concentrations of extracellular Ca^2+ (5-10 mM) to induce SR Ca^2+ overload and SOICR. The intracellular Ca^2+ transients as a result of SOICR will be monitored by measuring the fluorescent intensity using a fluorescent microscope. Various concentrations of the selected compounds (10 nM to 100 μM) will be applied and the resulting changes in intracellular Ca^2+ transients will be determined and analyzed.
# β-adrenergic receptor = experiment: β-blocking: isoproterenol-induced phosphorylation of RyR2 at serine-2030 in rat cardiac myocytes (Western blot); assay type: cell-based; conditions: 200 nM isoproterenol; for concentration that completely blocks the β-adrenergic receptor: S2030 phosphorylation
# Protocol: The β-adrenergic receptors were then stimulated by the addition of 200 nM isoproterenol (Iso) in the continued presence of drugs for 30 min at 37° C. Whole cell lysates were prepared and used for Western blotting (WB) analyses.
# It is known that stimulation of the β-adrenergic receptor (AR) by isoproterenol leads to the activation of the cAMP/protein kinase A (PKA) signaling pathway, which, in turn, results in the phosphorylation by PKA of various protein targets, including the RyR2 channel. RyR2 is specifically phosphorylated at the residue serine-2030 (S2030) upon β-AR stimulation by isoproterenol (Xiao et al., 2005). […] To do this, freshly isolated rat cardiac myocytes are pre-treated with various concentrations of the selected compounds for 5 min, followed by stimulation of the β-AR with 100-200 nM isoproterenol in the continued presence of the selected compounds for 30 min. Whole cell lysates are then prepared and used for determining the level of phosphorylation of RyR2 at S2030 by Western blotting using a site- and phospho-specific antibody against the phosphorylated S2030 site.
# RyR2-R4496C KI mice = experiment: Stress-induced ventricular tachycardia in RyR2-R4496C knock-in mice (CPVT model); assay type: in vivo, mouse; conditions: 16 mg/kg/day i.p. for 5 days, preliminary
# Protocol: The electrocardiograms (ECG) of the R4496C KI mice were continuously monitored by using telemetric ECG recordings before and after the injection of epinephrine and caffeine. The incidence of ventricular tachycardia (VT) was assessed by determining the duration of VT occurring during a 2-min period (% of time).
# In order to assess the efficacy of compounds of the present invention in suppressing cardiac arrhythmia at the animal level, genetically engineered knock-in mice were generated harboring RyR2 mutations that are associated with cardiac arrhythmia and sudden death. A heterozygous knock-in mouse line harboring the disease-causing RyR2 mutation, R4496C, has been prepared. Similar to patients who carry the mutation, the R4496C mutant mice are likely prone to stress-induced cardiac arrhythmia and sudden death. If this is the case, this R4496C mouse model may be used to test if compounds of the present invention are able to reduce the incidence of stress-induced cardiac arrhythmia and sudden death. Briefly, mutant mice will be pretreated with or without a positive compound identified above. Epinephrine and caffeine will be injected into the mutant mice to induce cardiac arrhythmia. Telemetric ECG recordings will be used to monitor the cardiac activity at rest and during epinephrine and caffeine perfusion. […]
# β-adrenergic receptors = conditions: Yao et al., 2003; read-out: IC50 of β-blocking activity; cited from earlier work
# [2] = patients with heart failure; Miller, 2003; cited from earlier work
# RyR2 = experiment: Initial investigations studying RyR2: suppression of SOICR by analogues; assay type: cell-based
# RyR2-N4104K mutant = target: T1, RyR2-N4104K mutant (Mus musculus, UniProt E9Q401, N4103K); experiment: SOICR in HEK293 cells expressing the N4104K RyR2 mutant; assay type: cell-based
# T1 construct: expressed in transfected cells; host or cells: HEK293
# T1 sequence (E9Q401 whole entry N4103K): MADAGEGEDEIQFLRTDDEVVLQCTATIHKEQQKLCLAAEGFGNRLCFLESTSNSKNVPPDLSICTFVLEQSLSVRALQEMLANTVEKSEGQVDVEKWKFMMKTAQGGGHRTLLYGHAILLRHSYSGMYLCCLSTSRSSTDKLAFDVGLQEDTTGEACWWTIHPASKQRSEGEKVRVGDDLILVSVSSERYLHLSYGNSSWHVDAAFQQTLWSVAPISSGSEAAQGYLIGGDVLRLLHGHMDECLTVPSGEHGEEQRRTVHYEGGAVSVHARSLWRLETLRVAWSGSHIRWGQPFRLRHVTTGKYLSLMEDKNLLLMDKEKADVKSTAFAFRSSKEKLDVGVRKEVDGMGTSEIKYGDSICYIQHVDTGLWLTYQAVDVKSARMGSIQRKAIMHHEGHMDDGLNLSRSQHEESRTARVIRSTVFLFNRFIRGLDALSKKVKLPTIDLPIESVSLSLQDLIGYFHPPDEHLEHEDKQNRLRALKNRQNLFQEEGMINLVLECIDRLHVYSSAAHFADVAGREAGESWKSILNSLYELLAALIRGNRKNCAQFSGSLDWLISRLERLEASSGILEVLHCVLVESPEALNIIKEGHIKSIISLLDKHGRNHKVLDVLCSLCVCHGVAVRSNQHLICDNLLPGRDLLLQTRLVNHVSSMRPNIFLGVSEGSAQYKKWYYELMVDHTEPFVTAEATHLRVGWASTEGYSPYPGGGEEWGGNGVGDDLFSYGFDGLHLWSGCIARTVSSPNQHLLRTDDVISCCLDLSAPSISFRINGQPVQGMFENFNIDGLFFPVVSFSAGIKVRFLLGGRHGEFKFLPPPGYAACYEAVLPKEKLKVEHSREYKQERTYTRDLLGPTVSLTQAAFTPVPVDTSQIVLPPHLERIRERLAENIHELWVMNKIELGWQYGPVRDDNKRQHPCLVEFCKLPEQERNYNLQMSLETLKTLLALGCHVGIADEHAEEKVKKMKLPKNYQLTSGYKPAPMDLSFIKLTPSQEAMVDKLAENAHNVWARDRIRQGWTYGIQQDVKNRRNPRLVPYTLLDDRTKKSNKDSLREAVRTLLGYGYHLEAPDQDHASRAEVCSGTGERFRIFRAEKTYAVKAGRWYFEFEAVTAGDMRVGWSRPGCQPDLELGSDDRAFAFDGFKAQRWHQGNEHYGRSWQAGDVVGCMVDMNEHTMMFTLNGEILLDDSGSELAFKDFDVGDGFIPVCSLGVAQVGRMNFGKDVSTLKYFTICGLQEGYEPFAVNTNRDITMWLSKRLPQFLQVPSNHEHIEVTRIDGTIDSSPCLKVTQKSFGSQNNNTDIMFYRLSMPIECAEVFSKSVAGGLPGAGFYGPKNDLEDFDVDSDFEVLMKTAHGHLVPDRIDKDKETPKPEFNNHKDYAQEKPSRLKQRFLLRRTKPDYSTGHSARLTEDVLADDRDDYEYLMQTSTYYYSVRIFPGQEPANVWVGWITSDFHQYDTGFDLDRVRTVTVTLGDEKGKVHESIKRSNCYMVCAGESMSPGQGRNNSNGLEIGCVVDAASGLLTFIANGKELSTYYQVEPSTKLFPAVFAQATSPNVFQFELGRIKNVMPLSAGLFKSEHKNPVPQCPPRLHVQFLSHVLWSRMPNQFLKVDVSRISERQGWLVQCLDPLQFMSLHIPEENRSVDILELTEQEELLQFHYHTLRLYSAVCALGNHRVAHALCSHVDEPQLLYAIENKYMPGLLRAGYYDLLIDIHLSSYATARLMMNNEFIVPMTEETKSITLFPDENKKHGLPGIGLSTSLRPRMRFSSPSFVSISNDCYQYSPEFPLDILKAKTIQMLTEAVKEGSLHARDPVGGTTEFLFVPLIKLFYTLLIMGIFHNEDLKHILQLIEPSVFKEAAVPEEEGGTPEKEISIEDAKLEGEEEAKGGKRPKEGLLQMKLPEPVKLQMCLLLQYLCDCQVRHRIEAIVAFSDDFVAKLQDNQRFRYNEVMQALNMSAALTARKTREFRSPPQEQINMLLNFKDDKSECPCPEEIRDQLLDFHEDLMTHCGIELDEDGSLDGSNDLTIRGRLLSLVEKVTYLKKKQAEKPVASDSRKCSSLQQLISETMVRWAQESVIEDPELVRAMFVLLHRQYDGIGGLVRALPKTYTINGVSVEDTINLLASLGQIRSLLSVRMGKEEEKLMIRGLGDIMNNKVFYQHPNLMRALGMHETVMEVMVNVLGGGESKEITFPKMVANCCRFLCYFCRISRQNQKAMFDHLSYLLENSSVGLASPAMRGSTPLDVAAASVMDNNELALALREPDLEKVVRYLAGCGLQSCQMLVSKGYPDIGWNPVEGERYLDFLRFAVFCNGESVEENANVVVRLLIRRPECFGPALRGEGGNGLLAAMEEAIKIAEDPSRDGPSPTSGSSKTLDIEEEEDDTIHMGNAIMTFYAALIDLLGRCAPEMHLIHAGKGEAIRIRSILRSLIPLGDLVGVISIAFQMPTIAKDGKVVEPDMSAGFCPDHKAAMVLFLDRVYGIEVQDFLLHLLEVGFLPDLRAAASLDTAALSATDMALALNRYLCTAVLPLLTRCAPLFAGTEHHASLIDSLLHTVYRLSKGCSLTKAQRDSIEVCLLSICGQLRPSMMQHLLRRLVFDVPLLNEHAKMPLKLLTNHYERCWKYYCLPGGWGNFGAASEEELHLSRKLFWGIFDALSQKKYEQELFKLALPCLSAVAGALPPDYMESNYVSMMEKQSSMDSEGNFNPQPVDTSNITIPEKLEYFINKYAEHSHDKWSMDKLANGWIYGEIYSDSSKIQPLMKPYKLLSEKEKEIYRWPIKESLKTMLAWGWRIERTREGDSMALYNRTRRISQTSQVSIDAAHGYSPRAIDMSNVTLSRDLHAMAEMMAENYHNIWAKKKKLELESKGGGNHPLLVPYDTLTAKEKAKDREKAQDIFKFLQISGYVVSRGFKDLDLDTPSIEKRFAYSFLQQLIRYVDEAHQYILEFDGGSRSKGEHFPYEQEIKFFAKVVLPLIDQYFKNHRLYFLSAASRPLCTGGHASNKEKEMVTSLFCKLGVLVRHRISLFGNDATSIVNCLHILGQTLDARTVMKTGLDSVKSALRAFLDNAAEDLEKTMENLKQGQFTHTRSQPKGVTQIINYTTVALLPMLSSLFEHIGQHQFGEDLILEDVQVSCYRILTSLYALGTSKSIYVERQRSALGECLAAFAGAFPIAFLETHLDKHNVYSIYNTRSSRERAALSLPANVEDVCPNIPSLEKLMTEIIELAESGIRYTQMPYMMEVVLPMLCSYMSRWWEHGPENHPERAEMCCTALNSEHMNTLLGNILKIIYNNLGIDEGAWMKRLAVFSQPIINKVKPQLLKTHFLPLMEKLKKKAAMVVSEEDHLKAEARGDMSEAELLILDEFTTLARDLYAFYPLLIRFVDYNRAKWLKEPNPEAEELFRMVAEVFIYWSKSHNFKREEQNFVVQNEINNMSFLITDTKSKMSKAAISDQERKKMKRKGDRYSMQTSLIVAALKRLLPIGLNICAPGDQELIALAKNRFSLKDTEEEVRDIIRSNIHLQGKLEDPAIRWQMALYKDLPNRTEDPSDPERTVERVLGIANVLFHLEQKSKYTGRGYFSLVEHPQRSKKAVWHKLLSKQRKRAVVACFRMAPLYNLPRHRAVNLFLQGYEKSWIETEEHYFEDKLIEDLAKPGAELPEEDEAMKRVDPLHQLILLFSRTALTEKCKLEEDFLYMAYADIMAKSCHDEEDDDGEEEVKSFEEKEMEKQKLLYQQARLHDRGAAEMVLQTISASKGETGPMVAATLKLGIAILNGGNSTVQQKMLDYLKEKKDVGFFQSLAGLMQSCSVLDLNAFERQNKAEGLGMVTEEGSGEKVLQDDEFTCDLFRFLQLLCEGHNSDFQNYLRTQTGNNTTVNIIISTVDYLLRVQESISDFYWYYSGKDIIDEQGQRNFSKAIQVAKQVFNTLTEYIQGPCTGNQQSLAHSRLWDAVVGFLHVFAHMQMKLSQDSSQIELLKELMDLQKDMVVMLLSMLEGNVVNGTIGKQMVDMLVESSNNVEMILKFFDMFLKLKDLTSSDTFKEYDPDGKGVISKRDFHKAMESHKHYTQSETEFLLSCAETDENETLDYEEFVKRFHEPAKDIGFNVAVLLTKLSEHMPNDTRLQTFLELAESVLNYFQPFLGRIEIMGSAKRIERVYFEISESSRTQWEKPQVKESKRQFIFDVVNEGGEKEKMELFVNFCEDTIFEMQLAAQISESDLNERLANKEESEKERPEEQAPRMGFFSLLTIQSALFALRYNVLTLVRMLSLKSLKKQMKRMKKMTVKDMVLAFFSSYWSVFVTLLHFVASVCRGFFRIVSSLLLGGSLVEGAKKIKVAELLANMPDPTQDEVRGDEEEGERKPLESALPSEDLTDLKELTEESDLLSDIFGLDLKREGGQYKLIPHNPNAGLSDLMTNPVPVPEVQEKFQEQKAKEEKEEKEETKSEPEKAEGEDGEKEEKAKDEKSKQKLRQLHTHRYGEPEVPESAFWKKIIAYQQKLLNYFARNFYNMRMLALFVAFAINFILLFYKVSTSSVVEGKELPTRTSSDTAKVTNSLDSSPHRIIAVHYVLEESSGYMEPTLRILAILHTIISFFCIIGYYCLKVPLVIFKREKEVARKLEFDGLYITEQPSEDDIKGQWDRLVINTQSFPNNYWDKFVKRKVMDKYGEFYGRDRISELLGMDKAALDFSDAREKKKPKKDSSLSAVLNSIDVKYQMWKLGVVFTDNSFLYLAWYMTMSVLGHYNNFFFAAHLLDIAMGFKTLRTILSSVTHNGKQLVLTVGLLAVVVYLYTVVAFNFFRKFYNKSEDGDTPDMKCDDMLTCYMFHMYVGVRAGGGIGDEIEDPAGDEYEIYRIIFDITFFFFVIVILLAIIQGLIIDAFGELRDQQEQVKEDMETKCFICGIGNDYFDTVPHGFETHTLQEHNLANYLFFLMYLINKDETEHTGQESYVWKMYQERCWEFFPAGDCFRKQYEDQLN
# Protocol: (§2) Intracellular Ca^2+ transients were monitored using single cell Ca^2+ imaging.
# (§3) HEK293 cells may be loaded with a fluorescent Ca^2+ dye, fura-2-AM. SOICR, which manifests in the form of Ca^2+ oscillations, is continuously monitored by measuring the fluorescent changes using the single cell Ca^2+ imaging technique. Cells will be perfused with increasing concentrations (10 nM to 100 μM) of the compound. The frequency and amplitude of Ca^2+ oscillations under each condition will be determined and analyzed. Compounds that inhibit SOICR are expected to reduce the frequency of Ca^2+ oscillations, or abolish Ca^2+ oscillations.
# as §1, with “Freshly isolated cells are loaded with a fluorescent Ca^2+ dye, fluo 4-AM, and bathed at high concentrations of extracellular Ca^2+ (5-10 mM) to induce SR Ca^2+ overload and SOICR.” left out
# RyR2 channel [3] = target: RyR2 channel (Homo sapiens, UniProt Q92736); conditions: Honen et al., 2003; cited from earlier work
# RyR2-R4496C mutant = target: T2, RyR2-R4496C mutant (Mus musculus, UniProt E9Q401, R4495C); experiment: SOICR in HEK293 cells expressing RyR2-R4496C mutant (fura-2 single cell Ca2+ imaging); assay type: cell-based; conditions: up to 500 μM
# T2 construct: expressed in transfected cells; host or cells: HEK293
# T2 sequence (E9Q401 whole entry R4495C): as the sequence (E9Q401 whole entry N4103K) above, with K4103N, R4495C counted along it
# Text: as §2
# This bioassay takes advantage of the finding that HEK293 cells expressing RyR2 mutants associated with cardiac arrhythmia and sudden death, readily display SOICR at elevated extracellular Ca^2+. […] This assay may be employed to determine the dose-dependent effect of each proposed compound on SOICR.
# as §3
# mutant RyR2 channels = target: T3, mutant RyR2 channels (Mus musculus, UniProt E9Q401, R4495C); experiment: [3H]ryanodine binding, basal channel activity of RyR2; assay type: biochemical
# T3 construct: expressed in transfected cells; host or cells: HEK293 (cell lysate, detergent-solubilised)
# T3 sequence (E9Q401 whole entry R4495C): as the sequence (E9Q401 whole entry N4103K) above, with K4103N, R4495C counted along it
# Text: as §2
# [^3H]Ryanodine binding has been widely used as a functional assay for assessing the activity of the RyR2 channel. […] These [^3H]ryanodine binding studies reveal whether suppression of SOICR by a compound is mediated by inhibition of the RyR2 channel activity.
# RyR2 channel [4] = target: T4, RyR2 channel (Mus musculus, UniProt E9Q401, R4495C); experiment: Ca2+ dependence of [3H]ryanodine binding (sensitivity of RyR2 to Ca2+ activation, CICR); assay type: biochemical; conditions: 300 μM (FIG. 4D)
# T4 construct: expressed in transfected cells; host or cells: HEK293 (cell lysate, detergent-solubilised)
# T4 sequence (E9Q401 whole entry R4495C): as the sequence (E9Q401 whole entry N4103K) above, with K4103N, R4495C counted along it
# Text: as §2
# Alternatively, the effect of compounds on CICR may be determined using [^3H]ryanodine binding. As CICR is dependent, to a large extent, on the sensitivity of the RyR2 channel to activation by Ca^2+, the effect of a compound on CICR may be determined by assessing the impact of the compound on the sensitivity of the RyR2 channel to Ca^2+ activation. To this end, [^3H]ryanodine binding to the RyR2 channel in a wide range of Ca^2+ concentrations may be measured. The sensitivity (EC50) of [^3H]ryanodine binding to RyR2 in the absence and presence of a particular compound may be determined.
smiles,measurement,setting,value
COc1ccccc1OCCNCC(O)COc1cccc2[nH]c3ccccc3c12 (stereo not shown) [Carvedilol],IC50,[1]; read-out: IC50 for suppressing SOICR,~10 µM
same,IC50,[1]; read-out: IC50 for suppressing the frequency of SOICR,~10 µM
same,concentration that abolishes SOICR,"[1]; rat ventricular myocytes, 10 mM extracellular Ca2+",50 µM
same,concentration that completely blocks the β-adrenergic receptor,β-adrenergic receptor,100 nM
same,ventricular tachycardia after epinephrine (2 mg/kg) and caffeine (120 mg/kg),RyR2-R4496C KI mice,abolish epinephrine and caffeine-induced ventricular tachycardia; also recorded: no VT was observed
same,IC50,β-adrenergic receptors,1 to 2 nM
same,absolute reduction in mortality,[2],~7%
COc1cc(Cl)c(Cl)cc1OCCNCC(O)COc1cccc2[nH]c3ccccc3c12 (stereo not shown) [Compound 1b],concentration that completely blocks the β-adrenergic receptor,β-adrenergic receptor,100 nM
same,suppression of SOICR,RyR2,activity comparable to that of carvedilol (1a)
OC(CNCCOc1cc(Cl)c(Cl)cc1Cl)COc1cccc2[nH]c3ccccc3c12 (stereo not shown) [Compound 1c],suppression of SOICR,RyR2,inactive
OC(CNCCOC1CCCCC1)COc1cccc2[nH]c3ccccc3c12 (stereo not shown) [Compound 1d],suppression of SOICR,RyR2,inactive; also recorded: limited effect
COc1ccccc1OCCN1CC(COc2cccc3[nH]c4ccccc4c23)OCC1=O (stereo not shown) [Compound 2a],effect on SOICR,"RyR2-N4104K mutant; HEK293 RyR2-N4104K, 2 mM [Ca2+]o, various concentrations",abolish SOICR
same,concentration at which SOICR is suppressed,RyR2-N4104K mutant; HEK293 cells (FIG. 5),~30 µM
same,β-blocking activity (block of isoproterenol-induced RyR2 S2030 phosphorylation),"β-adrenergic receptor; 1-1000 nM, preliminary, listed as VK-II-36",little β-blocking activity; also recorded: does not block the β-adrenergic receptor
same,ventricular tachycardia after epinephrine (2 mg/kg) and caffeine (120 mg/kg),RyR2-R4496C KI mice; listed as VK-II-36,abolish epinephrine and caffeine-induced ventricular tachycardia; also recorded: no VT was observed
COc1ccccc1OCCN1CCOC(COc2cccc3[nH]c4ccccc4c23)C1 (stereo not shown) [Compound 3a],suppression of SOICR,RyR2,limited effect
c1ccc2c(c1)[nH]c1cccc(OCC3CN(CCOC4CCCCC4)CCO3)c12 (stereo not shown) [Compound 3d],suppression of SOICR,RyR2,limited effect
COc1ccccc1OCCN1CC(COc2cccc3[nH]c4ccccc4c23)OC1=O (stereo not shown) [Compound 4a],suppression of SOICR,RyR2,limited effect
"CC/C=C\C/C=C\C/C=C\C/C=C\C/C=C\C/C=C\CCC(=O)O [DHA, docosahexenoic acid]",effect on RyR2 channel activity,RyR2 channel [3],inhibit RyR2 channel activity
"CC/C=C\C/C=C\C/C=C\C/C=C\C/C=C\CCCC(=O)O [EPA, eicosapentenoic acid]",effect on RyR2 channel activity,RyR2 channel [3],inhibit RyR2 channel activity
"CC(C)NCC(O)c1ccc(NS(C)(=O)=O)cc1 (stereo not shown) [Sotalol, sotalol]",effect on SOICR,"[1]; rat ventricular myocytes, up to 300 μM",no effect; also recorded: does not suppress SOICR at all
same,effect on SOICR,RyR2-R4496C mutant,no significant effect; also recorded: not sotalol inhibited SOICR
same,effect on basal channel activity ([3H]ryanodine binding),"mutant RyR2 channels; cell lysates, 3 nM Ca2+, various concentrations of drugs (FIG. 4C)","not sotalol, inhibited basal channel activity"
same,effect on channel activity of RyR2,mutant RyR2 channels; summary statement,absolutely no effect on RyR2
same,effect on Ca2+ dependence of [3H]ryanodine binding / sensitivity of RyR2 to Ca2+ activation,RyR2 channel [4],no significant effect
